# Data taken from patent publication US20090005437A1, “Alpha-Ketoglutarates and Their Use as Therapeutic Agents” (priority 2004, published 2009).
# What was measured:
# [1] = system: HIF-1α; assay: HIF-1α levels in cells incubated with DMS under normoxic conditions (western blot); format: cell-based; settings: 20 mM, 48 hours
# Text: Protein analyses. […] Following SDS-PAGE, proteins were blotted onto nitrocellulose and analyzed with the following antibodies: anti-HIF-1α (BD Biosciences), anti-HA (Roche), anti-GFP (BD Biosciences) or anti-Actin (Sigma).
# [2] = system: PHD; assay: PHD activity in cells co-expressing GFP-ODD fusion protein and HA-pVHL (GFP fluorescence, western blot); format: cell-based, human
# [3] = system: HIF1α; assay: HIF1α levels in HEK293 cells in which HIF1α was induced by DMS (western blot); format: cell-based, human; settings: HEK293, DMS 24 hours, then ester 3 hours
# [4] = system: HIF1α; assay: HIF1α induction in SDH-inhibited cells transfected with Di3 shRNA (western blot); format: cell-based; settings: 24 hour treatment
# [5] = system: cells under hypoxic conditions; assay: Cell death of cells grown under hypoxic conditions (0.5% oxygen)
# [6] = system: PHD (HIFα prolyl hydroxylase); assay: In vitro PHD activity (hydroxylation of in vitro-translated HA-ODDD by cell extracts, gel shift on SDS-PAGE); format: biochemical, human
# [7] = system: HEK293 cells; assay: Measurement of intracellular α-ketoglutarate (glutamate dehydrogenase assay); format: cell-based, human; settings: 1 mM, 5 hours
structure (smiles),measurement,setting,value
"COC(=O)CCC(=O)OC [DMS, dimethyl ester succinic acid]",HIF-1α levels (western blot),[1],elevated levels of HIF-1α
same,GFP fluorescence,"[2]; 48 hours after treatment with DMS, 10% oxygen",increase in GFP fluorescence
same,Level of GFP-ODD (western blot),"[2]; DMS alone, 48 hours",rose
"CCCCCCCCOC(=O)C(=O)CCC(=O)O [octyl-α-ketoglutarate, 2-Oxo-pentanedioic acid 1-octyl ester]",GFP fluorescence in DMS-treated cells,[2],reduced GFP fluorescence
same,HIF1α protein levels after DMS induction,[3],reversed DMS-induction of HIF1α completely
same,HIF1α induction observed with Di3 transfection,[4],reversed
same,Cell death under hypoxic conditions,[5],significant cell death
"O=C(O)CCC(=O)C(=O)OCc1cccc(C(F)(F)F)c1 [TFMB-α-ketoglutarate, 2-Oxopentanedioic acid 1-(3-trifluoromethyl-benzyl)ester]",GFP fluorescence in DMS-treated cells,[2],reduced GFP fluorescence
same,HIF1α protein levels after DMS induction,[3],substantially reduce the levels of HIF1α protein
same,HIF1α induction observed with Di3 transfection,[4],reversed
[Cl-].[Cl-].[Co+2] [CoCl2],GFP-ODD levels (western blot),[2],increase in GFP-ODD levels
"O=C(O)CCC(=O)O [succinate, succinic acid]",PHD activity (appearance of non-hydroxylated HA-ODD),"[6]; HeLa cell extracts, succinate held constant at 1 mM",inhibition of PHD activity
same,"PHD activity in vitro (production of hydroxylated HA-ODDD, mobility on SDS-PAGE)","[6]; cell extracts with α-ketoglutarate, Fe2+, ascorbate, DFO 5 mM, succinate 0.1-5.0 mM",decrease in the production of hydroxylated HA-ODDD
same,IC50,"[6]; read-out: IC50 for inhibition of PHD activity (HA-ODDD hydroxylation), cell extracts with α-ketoglutarate, Fe2+, ascorbate",500 µM
"O=C(O)CCC(=O)C(=O)O [free α-ketoglutaric acid, 2-Oxo-pentanedioic acid]",Change of intracellular α-ketoglutarate above basal levels,[7],no increase
